Source: patent US7491819B1 (priority 2004, dated 2009)
Read-outs that look alike come from different tables or passages of the source.

Experiments:
[1] = tested on: HIV-1 303B; test: microbe, parasite or virus in culture; type: cell-based; settings: for EC50: Human immunodeficiency virus 1, MT2, 120 h; for overall antiviral effect of the two-drug combination with Example 19 (in words): classification from combination indices and confidence intervals; for Combination Indices at 50% HIV Inhibition (Confidence Interval) / Combination Indices at 75% HIV Inhibition (Confidence Interval) / Combination Indices at 90% HIV Inhibition (Confidence Interval): in combination with Example 19, 95% CI in parenthesis
Protocol: Virus and cell lines. The T-cell line, MT-2, was obtained through the AIDS Research and Reference Reagent Program. MT-2 cells were sub-cultured twice a week in RPMI 1640 medium supplemented with 10% fetal bovine serum, 2 mM L-glutamine, and 10 mM HEPES buffer pH 7.5. The HIV-1303B virus is a molecular clone derived from the NL4-3 strain of HIV-1 that was obtained from the NIH AIDS Research and Reference Reagent Program. For combinations with enfuvirtide, the NL36G virus was used. […] Virus stocks were made by transfecting 293T cells with a proviral DNA clone using LipofectAMINE PLUS (Invitrogen), according to the manufacturer's instructions. Three days post-transfection, virus was harvested and passaged once in MT-2 cells before titration in MT-2 cells.
Chemicals. Example 19, atazanavir, didanosine, stavudine, efavirenz, and enfuvirtide (T-20) were synthesized by Bristol-Myers Squibb using published or known reactions. […] Tenofovir was tested as tenofovir disopoxil fumarate. Zidovudine and zalcitabine were purchased from Sigma, and emtricitabine from Moravek Biochemicals.
Drug Susceptibility and Cytotoxicity Assays. For drug susceptibility assays, MT-2 cells were infected with HIV-1 303B (or NL36G), at an MOI of 0.001, and seeded into 96-well microtiter plates (2.5×10^5 cells/ml) containing serial dilutions of test compounds. […] Each drug ratio consisted of an array of 3-fold serial dilutions, and was performed with eight or more replicas on separate multi-well plates. HIV infected cells were incubated at 37° C. in 5% CO2, and on day five post-infection, the extent of virus replication was measured by determining cell viability using the CellTiter 96 Aqueous Non-Radioactive Cell Proliferation Assay (Promega). […] Cytotoxicity assays were performed in parallel with the combination experiments. Here, uninfected cells were exposed to the same drug combinations, and assayed after five days for cell viability using the MTS assay.
Analysis of Drug Combination Effects. For determination of combination index (CI) values, drugs were diluted in a fixed ratio and multiple ratios were analyzed. The drug serial dilutions spanned a range of concentrations near the EC50 value of each compound, so that equivalent antiviral activities could be compared. The normalized responses from each therapy are fit to the four-parameter logistic model with a common minimum and maximum across all therapies. Conceptually, this equation can be written as
In this equation, Fa stands for “fraction affected,” and represents the fraction of the viral load that has been inactivated. […] The EC50, represented by the Ci in the above equation, is the drug concentration that is expected to reduce the amount of virus by 50%, and the Bi are the parameters that reflects the slope of the concentration-response curve. For this assay, A is the bottom plateau common to all curves, D is the common top plateau, Bj is the “slope” parameter for the jth therapy, and Cj is the concentration that produces an effect equal to the average of A and D for the jth therapy. Therapies 1 and 2 correspond to mono therapies 1 and 2, respectively. Therapies 3, 4, and 5 correspond to the three combination therapies. EC50 values for each drug were determined from the single drug experiments, using the above equation. The equation was fit using a nonlinear regression routine (Proc Nlin) in PC SAS version 8.2 (SAS Institute Inc.).
To assess antiviral effects of different drug combination treatments, combination indices (CIs) were calculated according to Chou and Rideout. The combination index was computed as
In this equation [Dm]1 and [Dm]2 are the concentrations of drugs that would individually produce a specific level of effect, while [D]1 and [D]2 are the concentrations of drugs in combination that would produce the same level of effect.
Theoretically, additivity is implied if the CI is equal to one, synergy if the CI is less than one, and antagonism if the CI is greater than one.

[2] = target: T1, HIV-integrase (Human immunodeficiency virus type 1 group M subtype B, UniProt P12497); test: HIV-Integrase Inhibition Activity (SPA bead strand-transfer assay); type: biochemical
T1 construct: Recombinant integrase (0.26 ng) was incubated with the beads
In short: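 Biotin-labelled substrate DNA (5 pmole) bound to streptavidin SPA beads, preloaded with recombinant integrase (0.26 ng) for 90 min at 37° C, then washed. Inhibitors and 0.1 fmol P33-labelled target DNA added; reaction stopped with 10 mM EDTA. Integration read as scintillation CPM.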

[3] = EC50 ratio Example 19:comparator 1:1
[4] = EC50 ratio Example 19:comparator 1:2.5
[5] = EC50 ratio Example 19:comparator 2.5:1
[6] = Table 1, read-out: Activity (HIV-integrase inhibition, IC50 class)

Compound | EC50 [1] | overall antiviral effect of the two-drug combination with Example 19 (in words) [1] | Combination Indices at 50% HIV Inhibition (Confidence Interval) [1, 3] | Combination Indices at 75% HIV Inhibition (Confidence Interval) [1, 3] | Combination Indices at 90% HIV Inhibition (Confidence Interval) [1, 3] | Combination Indices at 50% HIV Inhibition (Confidence Interval) [1, 4] | Combination Indices at 75% HIV Inhibition (Confidence Interval) [1, 4] | Combination Indices at 90% HIV Inhibition (Confidence Interval) [1, 4] | Combination Indices at 50% HIV Inhibition (Confidence Interval) [1, 5] | Combination Indices at 75% HIV Inhibition (Confidence Interval) [1, 5] | Combination Indices at 90% HIV Inhibition (Confidence Interval) [1, 5] | IC50 [2, 6] | IC50 ([2]; Table 2a, read-out: HIV-Integrase Inhibition Activity)
Nc1nc(NC2CC2)c2ncn([C@H]3C=C[C@@H](CO)C3)c2n1 [Abacavir, abacavir] | 1040 nM | synergistic | 0.68 (0.59, 0.76) | 0.67 (0.56, 0.79) | 0.67 (0.49, 0.84) | 0.87 (0.77, 0.97) | 0.74 (0.63, 0.85) | 0.63 (0.50, 0.77) | 0.86 (0.76, 0.96) | 0.82 (0.68, 0.96) | 0.79 (0.58, 0.99) | – | –
CC(C)CN(C[C@@H](O)[C@H](Cc1ccccc1)NC(=O)O[C@H]1CCOC1)S(=O)(=O)c1ccc(N)cc1 [Amprenavir, amprenavir] | 62 nM | synergistic-additive effect | 0.83 (0.67, 1.00) | 0.84 (0.61, 1.08) | 0.89 (0.50, 1.23) | 0.84 (0.69, 0.99) | 0.77 (0.58, 0.96) | 0.75 (0.46, 1.04) | 0.90 (0.77, 1.04) | 0.62 (0.50, 0.74) | 0.44 (0.30, 0.57) | – | –
COC(=O)N[C@H](C(=O)N[C@@H](Cc1ccccc1)[C@@H](O)CN(Cc1ccc(-c2ccccn2)cc1)NC(=O)[C@@H](NC(=O)OC)C(C)(C)C)C(C)(C)C [Atazanavir, atazanavir] | 10 nM | confidence interval is below one at all concentrations and effective levels | 0.87 (0.79, 0.96) | 0.67 (0.55, 0.80) | 0.52 (0.37, 0.67) | 0.65 (0.51, 0.78) | 0.45 (0.31, 0.58) | 0.31 (0.19, 0.44) | 0.78 (0.69, 0.86) | 0.60 (0.54, 0.67) | 0.47 (0.40, 0.54) | – | –
CC(C)Nc1cccnc1N1CCN(C(=O)c2cc3cc(NS(C)(=O)=O)ccc3[nH]2)CC1 [Delavirdine, delavirdine] | 43 nM | – | 0.76 (0.64, 0.89) | 0.60 (0.47, 0.74) | 0.48 (0.31, 0.64) | 0.68 (0.58, 0.77) | 0.44 (0.32, 0.54) | 0.28 (0.17, 0.39) | 0.80 (0.68, 0.92) | 0.53 (0.42, 0.63) | 0.35 (0.25, 0.45) | – | –
O=c1[nH]cnc2c1ncn2[C@H]1CC[C@@H](CO)O1 [Didanosine, didanosine] | 10700 nM | synergistic | 0.58 (0.53, 0.63) | 0.47 (0.35, 0.60) | 0.39 (0.22, 0.56) | 0.56 (0.51, 0.62) | 0.46 (0.40, 0.52) | 0.38 (0.32, 0.44) | 0.50 (0.46, 0.54) | 0.49 (0.44, 0.53) | 0.48 (0.42, 0.54) | – | –
O=C1Nc2ccc(Cl)cc2[C@@](C#CC2CC2)(C(F)(F)F)O1 [Efavirenz, efavirenz] | 1.6 nM | synergism at most effective concentrations and molar ratios | 0.83 (0.75, 0.92) | 0.76 (0.64, 0.88) | 0.70 (0.54, 0.85) | 0.95 (0.86, 1.04) | 0.93 (0.85, 1.02) | 0.93 (0.79, 1.06) | 1.01 (0.92, 1.10) | 0.96 (0.83, 1.10) | 0.94 (0.73, 1.14) | – | –
Nc1nc(=O)n([C@@H]2CS[C@H](CO)O2)cc1F [Emtricitabine, emtricitabine] | 53 nM | synergistic | 0.31 (0.27, 0.36) | 0.23 (0.18, 0.28) | 0.18 (0.12, 0.24) | 0.31 (0.26, 0.37) | 0.23 (0.19, 0.29) | 0.17 (0.12, 0.28) | 0.33 (0.28, 0.38) | 0.25 (0.20, 0.30) | 0.19 (0.13, 0.25) | – | –
COP(=O)(OC)c1cc(F)ccc1CNC(=O)c1nc2n(c(=O)c1O)CCOC2(C)C [Example 281, Phosphonic acid, [5-fluoro-2-[[[(4,6,7,9-tetrahydro-3-hydroxy-9,9-dimethyl-4-oxopyrimido[2,1-c][1,4]oxazin-2-yl)carbonyl]amino]methyl]phenyl]-, dimethyl ester] | – | – | – | – | – | – | – | – | – | – | – | 2 to 100 nM | –
CCOP(=O)(O)c1cc(F)ccc1CNC(=O)c1nc2n(c(=O)c1O)CCOC2(C)C [Example 282, Phosphonic acid, [5-fluoro-2-[[[(4,6,7,9-tetrahydro-3-hydroxy-9,9-dimethyl-4-oxopyrimido[2,1-c][1,4]oxazin-2-yl)carbonyl]amino]methyl]phenyl]-, monoethyl ester] | – | – | – | – | – | – | – | – | – | – | – | 2 to 100 nM | –
CC1(C)OCCn2c1nc(C(=O)NCc1ccc(F)cc1SCCO)c(O)c2=O [Example 313, Pyrimido[2,1-c][1,4]oxazine-2-carboxamide, N-[[4-fluoro-2-[(2-hydroxyethyl)thio]phenyl]methyl]-4,6,7,9-tetrahydro-3-hydroxy-9,9-dimethyl-4-oxo-] | – | – | – | – | – | – | – | – | – | – | – | – | 2 to 100 nM
